Where a name gives a salt, the structure may show the parent alone.
Tests used:
[1] = Activity on intracavernous pressure by intracavernous injection to anesthetized dogs; type: in vivo
Method: Male beagle dogs having body weights of about 10 kg were anesthetized by intravenous administration of sodium pentobarbital at 35 mg/kg followed by immobilizing the animals in the dorsal position on a heating mat (SMS-2000J, Medical System Inc.) and inserting a. cannula into the trachea. A 23G winged needle for measuring internal pressure was inserted into the right corpus cavernosum, and intracavernous pressure was measured with a blood pressure measurement amplifier (AP-641G, Nihon Koden) by means of a pressure transducer (Statham P-50, Gould Co.). Moreover, a 23G winged needle for administration of drug was inserted into the right corpus cavernosum of the base followed by intracavernous injection of sodium nitroprusside (SNP, 10^-4 or 10^-3 mol/L, 0.5 ml) followed by administration of drug at the stage an increase in intracavernous pressure was confirmed. It should be noted that Compound A and milrinone were prepared with dimethyl sulfoxide-ethanol-physiological saline (1:2:30). […]
The activity of Compound A was assessed directly by administering at a volume of 0.5 ml starting from the lowest dose level at 0.243, 0.729, 2.43, 7.29, 24.3 and 72.9 µg/body (10^-6, 3 × 10^-6, 10^-5, 3 × 10^-5, 10^-4 and 3 × 10^-4 mol/L).
The effect of milrinone and zaprinast was assessed by concomitant administration of milrinone at 106 µg/body (10^-3 mol/L) and zaprinast at 136 µg/body (10^-3 mol/L) using a dosing volume of 0.5 ml each.
Intracavernous pressure was input into a polygraph (RM-6000, Nihon Koden), and together with continuously recording on a thermal pen recorder, was recorded and sampled on an external storage device (hard disk) of a computer (Macintosh Performa 5260, Apple) by means of a circulation kinetics analysis system (MP100WS, BIOPAC System) using circulation kinetics analysis software (MP/VAS 3 Ver. 1.0 beta 4.2, Physio-Tech Co., Ltd.). Maximum rate of change, duration and area under the curve (AUC) of intracavernous pressure were calculated using the circulation kinetics analysis software based on the resulting data. […]

[2] = test system: isolated corpus cavernosum of rabbit; assay: Relaxation on norepinephrine-induced contraction in isolated corpus cavernosum of rabbit; settings: for attenuation of action by pre-treatment with L-NAME: L-NAME (1 mmol/L); for IC50: Oryctolagus cuniculus
Source text: (§1) Rabbits were sacrificed by venesection following severing of the carotid artery under sodium pentobarbital anesthesia. The penis was immediately isolated and transferred into Krebs-Henseleit solution (composition (mmol/L): NaCl 118.4, KCl 4.7, CaCl2 2.5, MgSO4 1.2, KH2PO4 1.2, NaHCO3 25.0, glucose 11.1), which was adequately aerated with a 95% O2/5% CO2. After cutting away the connective tissue, the penis was severed longitudinally into two sections so that half of the urethra was present in each section by using an extension of the midline as the boundary. Each preparation was suspended from an FD pickup (TB-611T, Nihon Koden) at a resting tension of 0.5 g (about 5 mN) for the load in a nutrient solution consisting of 20 ml of organ bath maintained at 37°C. Contraction was recorded as the isometric contraction on a thermal pen writing recorder (WT-685G, Nihon Koden) following amplification by a carrier amplifier (AP-621G, Nihon Koden). After replacing the nutrient solution twice every 20 minutes and allowing to equilibrate, reactivity was confirmed for each preparation by observing the contraction to 1 µmol/L of norepinephrine. After contraction stabilized, the preparation was washed by replacing the nutrient solution, after which the solution was additionally replaced twice every 20 minutes and acceptable to equilibrate.
To begin with, each preparation was contracted by norepinephrine (final concentration: 1 µmol/L). The preparation for which stable tension was obtained at this time was used in the experiment. Each drug was administered cumulatively in 10-fold ratios followed by observation of the reaction. The maximum relaxation reaction was determined by application of papaverine hydrochloride (final concentration: 100 µmol/L).
The inhibition rate at each concentration was calculated by taking the tension during addition of norepinephrine to represent an inhibition rate of 0%, and the tension during the maximum relaxation reaction induced by addition of papaverine hydrochloride to represent an inhibition rate of 100%, followed by calculation of the concentration value at which the inhibition rate was 50% (IC50).

[3] = test system: isolated thoracic aorta of rabbit; assay: Relaxation on norepinephrine-induced contraction in isolated thoracic aorta of rabbit; settings: for IC50: Oryctolagus cuniculus
Source text: as §1, with “equilibrate. To begin with, each preparation was contracted by norepinephrine (final concentration: 1 µmol/L). The preparation for which stable tension was obtained at this time was used in the experiment. Each drug was administered cumulatively in 10-fold ratios followed by observation of the reaction. The maximum relaxation reaction was determined by application of papaverine hydrochloride (final concentration: 100 µmol/L). The inhibition rate at each concentration was calculated by taking the tension during addition of norepinephrine to represent an inhibition rate of 0%, and the tension during the maximum relaxation reaction induced by addition of papaverine hydrochloride to represent an inhibition rate of 100%, followed by calculation of the concentration value at which the inhibition rate was 50% (IC50). The procedure was performed in the same manner as Experimental Example 2 with the exception of isolating the thoracic aorta and preparing in the form of a […] strip, and using 1 g (about 10 mN) of resting tension for the load.” for “equilibrate.”

right atrium preparation = assay: Action on isolated cardiac muscle of guinea-pig: number of beats of right atrium preparation; settings: for action on the heart relative to the action on the corpus cavernosum: EC30 heart compared with IC50 corpus cavernosum of Experimental example 2; for EC30 Heart rate: number of beats, 30% of isoproterenol maximum reaction
Method: After sacrificing male Hartley guinea-pigs by venesection, the heart was isolated and transferred to Krebs-Henseleit solution was adequately aerated with a 95% O2/5% CO2. After promptly separating the heart into the atria and ventricles, a papillary muscle preparation from the right ventricle and a right atrium preparation were prepared. Each preparation was suspended from an FD pickup (TB-611T, Nihon Koden) at a resting tension of 0.5 g (about 5 mN) for the load in a nutrient solution consisting of organ bath maintained at 31°C. Automatic contraction of the right atrium amplified by a carrier amplifier (AP-600G, Nihon Koden) followed by recording tension and the number of beats on a recorded by means of an instantaneous heart rate counter (AT600G, Nihon Koden). For the papillary muscle, a rectangular wave electrical stimulus was applied by an electrical stimulator (SEN-3201, Nihon Koden) through bipolar platinum electrodes followed by amplification of the resulting tension by a carrier amplifier (AP-600G, Nihon Koden) and recording on a recorder. The right atrium preparations were equilibrated by replacing the nutrient solution twice every 20 minutes followed by confirmation of the reactivity of each preparation by observing the number of beats in the presence of 0.1 µmol/L of isoproterenol. After the number of beats had stabilized, the preparations were washed by replacing the nutrient solution and additionally equilibrated by replacing the nutrient solution twice every 20 minutes. Each drug was administered cumulatively followed by observing the reaction. Drug action was evaluated by determining the rate of change caused by the drug by taking the difference between the maximum reaction induced by isoproterenol and that before drug administration to be 100%, and then calculating the EC30 value as the concentration at which drug action was 30% with respect to the number of beats based on this rate of change.

[4] = test system: papillary muscle preparation from the right ventricle; assay: Action on isolated cardiac muscle of guinea-pig: force of contraction of papillary muscle preparation; settings: 30% of isoproterenol maximum reaction
Method: After sacrificing male Hartley guinea-pigs by venesection, the heart was isolated and transferred to Krebs-Henseleit solution was adequately aerated with a 95% O2/5% CO2. After promptly separating the heart into the atria and ventricles, a papillary muscle preparation from the right ventricle and a right atrium preparation were prepared. Each preparation was suspended from an FD pickup (TB-611T, Nihon Koden) at a resting tension of 0.5 g (about 5 mN) for the load in a nutrient solution consisting of organ bath maintained at 31°C. Automatic contraction of the right atrium amplified by a carrier amplifier (AP-600G, Nihon Koden) followed by recording tension and the number of beats on a recorded by means of an instantaneous heart rate counter (AT600G, Nihon Koden). […] Drug action was evaluated by determining the rate of change caused by the drug by taking the difference between the maximum reaction induced by the second administration of isoproterenol and that before drug administration to be 100%, and then calculating the EC30 value as the concentration at which drug action was 30% with respect to force of contraction based on this rate of change.

[5] = intracavernous injection, Dunnett's test vs solvent group
[6] = direct relaxation, norepinephrine 1 µmol/L contraction
[7] = pre-treatment with L-NAME (1 mmol/L)

What does the source list for Cl.O=c1[nH]nc(OCCCc2ccc(Cl)cc2)c(NCc2cccnc2)c1Br [Compound A, 4-bromo-6-[3-(4-chlorophenyl)propoxy]-5-(3-pyridylmethylamino)-3(2H)-pyridazinone hydrochloride]?
intracavernous pressure ([1]; intracavernous injection 0.243 to 72.9 µg/body (10^-6 to 3 × 10^-4 mol/L), after SNP): increased intracavernous pressure, nearly dose-dependently; dose with significant effects on duration of intracavernous pressure [1, 5]: ≥ 2.43 µg/body; dose with significant effects on maximum rate of change of intracavernous pressure [1, 5]: ≥ 2.43 µg/body; attenuation of action by pre-treatment with L-NAME [2]: about one-half; IC50 [2, 6]: 330 nM; IC50 [2, 7]: 770 nM; IC50 ([2]; pre-treatment with SNP (1 nmol/L)): 150 nM; enhancement of action by pre-treatment with SNP ([2]; SNP (1 nmol/L)): about two-fold; action on the cavernous body relative to that on the aorta ([3]; IC50 aorta compared with IC50 corpus cavernosum): about 8 times; IC50 ([3]; aorta, pre-treatment with SNP (1 nmol/L)): 2710 nM; IC50 ([3]; direct relaxation, norepinephrine 1 µmol/L contraction, aorta): 2650 nM; relaxation action ([3]; aorta, cumulative administration): dose-dependent relaxation action; effect of pre-treatment with SNP on action ([3]; aorta, SNP (1 nmol/L)): completely unaffected; action on the heart relative to the action on the corpus cavernosum (right atrium preparation): less than 1/90; EC30 Heart rate (right atrium preparation; hydrochloride): >30000 nM; EC30 Papillary muscle contraction force ([4]; hydrochloride): >30000 nM

For O=c1[nH]nc(OCCC(O)c2ccc(Cl)cc2)c(NCc2cccnc2)c1Br (stereo not drawn) [Compound B, 4-bromo-6-[3-(4-chlorophenyl)-3-hydroxypropoxy]-5-(3-pyridylmethylamino)-3(2H)-pyridazinone hydrochloride], which IC50 [2, 6] is on record?
Its IC50 is 1590 nM.

For Cc1[nH]c(=O)c(C#N)cc1-c1ccncc1 [Milrinone, milrinone, reference compound], which IC50 [2, 6] is on record?
The IC50 was 5800 nM.

And the “action on the heart relative to the action on the corpus cavernosum” value (right atrium preparation)?
The value was “about 1/2”.

What about the “EC30 Heart rate” value (right atrium preparation) of the same molecule?
The value was 11700 nM.

And the “EC30 Papillary muscle contraction force” value [4]?
Its value is 33900 nM.

With CCCOc1ccccc1-c1nc2nn[nH]c2c(=O)[nH]1 [Zaprinast, zaprinast, reference compound] as the molecule, how does the “attenuation of action by pre-treatment with L-NAME” value [2] read?
Its value is 1/18.

And the IC50 [2, 6]?
Its IC50 is 5500 nM.

And the IC50 [2, 7]?
The IC50 was greater than 100000 nM.

Reference: patent EP1157694A1, “REMEDIAL AGENT FOR ERECTILE DYSFUNCTION” (Nissan Chemical Industries, Ltd., priority 1998, dated 2000)
